Series [1] deals with H9. Briefly: The compound was evaluated for anti-HIV activity using T cell line (H9); No suppression. The class given is functional, cell-based, Homo sapiens.
Series [2] relates to H9. Briefly: Cytotoxicity against H9 cell line. The class given is functional, cell-based. As to conditions: Homo sapiens; call rule not given here.
Series [3] deals with H9. The experiment in a line: Evaluation for anti-HIV activity using T cell line (H9). The class given is functional, cell-based. To be noted: Homo sapiens.
Series [4] is described as follows: Therapeutic index (IC50/EC50). The class given is cell-based. To be noted: human, H9 cells; read-out: Therapeutic index.
Series [5] deals with H9. Briefly: The compound was evaluated for cytotoxicity against H9 cell line; Toxic. The class given is toxicity, cell-based, Homo sapiens.
The test system of series [6] is H9. Briefly: The compound was evaluated for anti-HIV activity using T cell line (H9). As to conditions: Homo sapiens.
For series [7], the system named is H9. The description is as above. As to conditions: Homo sapiens. The source holds these as a separate data set.

With `COc1cc([C@@H]2c3cc4c(cc3[C@@H](O)[C@H]3COC(=O)[C@H]23)OCO4)cc(OC)c1O` [4'-DEMETHYLEPIPODOPHYLLOTOXIN], the EC50 entry in the series with H9 [1] is “Not Active”. The compound also yielded an IC50 with H9 [2] of 70 nM.
`CCN(CC)CCN[C@@H]1c2cc3c(cc2[C@@H](c2cc(OC)c(O)c(OC)c2)[C@H]2C(=O)OC[C@@H]21)OCO3`: the EC50 with H9 [3] came to 10000 nM. In series [4], the selectivity ratio amounted to 0.8. This compound returned an IC50 with H9 [2] of 8000 nM.
Turning to `COc1cc([C@@H]2c3cc(O)c(O)cc3[C@H](O)[C@H]3COC(=O)[C@H]23)cc(OC)c1O`, the concentration giving a half-maximal response (EC50) entry with H9 [1] is on record as “Not Active”. The compound also yielded an IC50 in the series with H9 [2] of 1850 nM.
As for `COc1cc([C@@H]2c3cc4c(cc3[C@@H](Sc3ccc(O)cc3)[C@H]3COC(=O)[C@H]23)OCO4)cc(OC)c1O`, it took 800 nM to reach a half-maximal effect in the series with H9 [3] (EC50). Moreover, the selectivity ratio in series [4] came out at 2.1. In the series with H9 [2], the IC50 turned out to be 1700 nM.
`COc1cc([C@@H]2c3cc4c(cc3[C@@H](Nc3ccc(F)cc3)[C@H]3COC(=O)[C@H]23)OCO4)cc(OC)c1OC` showed an EC50 in the series with H9 [3] of 450 nM. For the same compound, the selectivity ratio in series [4] stood at 3.3. In addition, the IC50 with H9 [2] turned out to be 1500 nM.
Consider `CCS[C@@H]1c2cc3c(cc2[C@@H](c2cc(OC)c(O)c(OC)c2)[C@H]2C(=O)OC[C@@H]21)OCO3`, for which the EC50 entry in the series with H9 [1] is “Not Active”. Besides, the 50% inhibitory concentration (IC50) in the series on H9 [2] turned out to be 1900 nM.
For the compound `COc1cc([C@@H]2c3cc4c(cc3[C@@H](Nc3ccc(F)cc3)[C@H]3COC(=O)[C@H]23)OCO4)cc(OC)c1O`, in the series with H9 [3], the half-maximal effective concentration (EC50) came to 100 nM. Moreover, the selectivity ratio in series [4] was determined as 10. In addition, the IC50 in the series on H9 [2] is 1000 nM.
`COc1cc([C@@H]2c3cc4c(cc3[C@@H](O)[C@H]3COC(=O)[C@H]23)OCO4)cc(N)c1N`: a half-maximal effect in the series on H9 [3] (EC50) was put at 1700 nM. The selectivity ratio in series [4] stood at 3.9. This compound also had a half-maximal inhibitory concentration (IC50) with H9 [2] of 6600 nM.
For `COc1cc([C@@H]2c3cc4c(cc3C(=O)[C@H]3COC(=O)[C@H]23)OCO4)cc(OC)c1O` the same measures were 800 nM, 2.1 and 1700 nM.
For the compound `COc1cc([C@@H]2c3cc4c(cc3[C@@H](Nc3ccc([N+](=O)[O-])cc3)[C@H]3COC(=O)[C@H]23)OCO4)cc(OC)c1O`, the EC50 with H9 [3] was below 1.28 nM. Besides, the selectivity ratio in series [4] turned out to be 55.8. The compound further displayed an IC50 in the series on H9 [2] of 70 nM.
In the case of `CCN(CC)[C@@H]1c2cc3c(cc2[C@@H](c2cc(OC)c(O)c(OC)c2)[C@H]2C(=O)OC[C@@H]21)OCO3.Cl`, the EC50 entry in the series on H9 [1] is listed as “No supperssion”. In addition, the IC50 in the series with H9 [2] was above 100000 nM.
In the series on H9 [3], `Cc1cn([C@H]2C[C@H](N=[N+]=[N-])[C@@H](CO)O2)c(=O)[nH]c1=O` [ZIDOVUDINE] displayed a concentration for a half-maximal effect (EC50) of 9 nM. The compound further had a half-inhibitory concentration (IC50) in the series with H9 [2] of 500000 nM.
In the series on H9 [3], `COc1cc([C@@H]2c3cc4c(cc3[C@@H](Oc3ccc(F)cc3)[C@H]3COC(=O)[C@H]23)OCO4)cc(OC)c1O` had an EC50 of 450 nM. In series [4], the selectivity ratio is 1.8. In the series on H9 [2], this compound yielded an IC50 of 800 nM.
As to `COc1cc([C@@H]2c3cc4c(cc3[C@H](O)[C@H]3COC(=O)[C@H]23)OCO4)cc(OC)c1OC` [PODOFILOX], the concentration for half-maximal inhibition (IC50) result with H9 [5] was “Toxic”.
Consider `COc1cc([C@@H]2c3cc4c(cc3[C@@H](Nc3ccc(F)cc3)[C@H]3COC(O)[C@H]23)OCO4)cc(OC)c1O` (some centres not stated), for which the half-maximal effective concentration (EC50) in the series with H9 [3] came out at 450 nM. Moreover, in series [4], the selectivity ratio was found to be 4. The compound further displayed an IC50 in the series on H9 [2] of 1800 nM.
In the case of `COc1cc([C@@H]2c3cc(O)c(O)cc3[C@@H](O)[C@H]3COC(=O)[C@H]23)cc(OC)c1O`, the concentration for a half-maximal effect (EC50) result with H9 [1] is on record as “Not Active”. In the series with H9 [2], the IC50 came to 45000 nM.
For `COc1cc([C@@H]2c3cc(O)c(O)cc3[C@@H](Nc3ccc(F)cc3)[C@H]3COC(=O)[C@H]23)cc(OC)c1O`, the response in the series with H9 [3] was half-maximal at 7000 nM (EC50). Further, the selectivity ratio in series [4] was 4.1. Besides, the IC50 with H9 [2] is 29000 nM.
In turn, `CCOC(=O)c1ccc(N[C@@H]2c3cc(OC)c(OC)cc3[C@@H](c3cc(OC)c(O)c(OC)c3)[C@H]3C(=O)OC[C@@H]32)cc1` showed a 50% effective concentration (EC50) in the series on H9 [3] below 1 nM. In series [4], the selectivity ratio was above 120. This compound also returned an IC50 in the series with H9 [2] of 120 nM.
In the case of `COc1cc([C@@H]2c3cc4c(cc3C(=O)[C@H]3COC(=O)[C@H]23)OCO4)cc(O)c1O`, the selectivity ratio in series [4] came out at 3. Moreover, the response with H9 [6] was half-maximal at 3000 nM (EC50). The compound further came in with an IC50 in the series with H9 [2] of 9000 nM.
For `COc1cc2c(cc1OC)[C@@H](Nc1ccc(F)cc1)[C@H]1COC(=O)[C@@H]1[C@@H]2c1cc(OC)c(O)c(OC)c1`, in the series with H9 [3], the 50% effective concentration (EC50) was below 1 nM. In addition, the selectivity ratio in series [4] is above 166. For the same compound, half-maximal inhibition in the series with H9 [2] (IC50) was put at 166 nM.
`COc1cc2c(cc1OC)[C@@H](Nc1ccc([N+](=O)[O-])cc1)[C@H]1COC(=O)[C@@H]1[C@@H]2c1cc(OC)c(O)c(OC)c1` returned an EC50 in the series with H9 [7] below 1 nM. Besides, the selectivity ratio in series [4] was above 158. In the series with H9 [2], this compound showed an IC50 of 158 nM.
`CCS[C@@H]1c2cc3c(cc2[C@@H](c2cc(OC)c(OC)c(OC)c2)[C@H]2C(=O)OC[C@@H]21)OCO3` yielded a concentration giving a half-maximal response (EC50) in the series with H9 [3] of 160 nM. The selectivity ratio in series [4] worked out at 2. Moreover, the half-inhibitory concentration (IC50) in the series with H9 [2] came to 320 nM.
Regarding `COc1cc([C@@H]2c3cc4c(cc3[C@@H](Nc3ccc(F)cc3)[C@H]3COC[C@H]23)OCO4)cc(OC)c1O`, the concentration giving a half-maximal response (EC50) with H9 [3] came out at 120 nM. Also, the selectivity ratio in series [4] was 12.5. The concentration for half-maximal inhibition (IC50) in the series with H9 [2] was determined as 1500 nM.
In the series on H9 [3], `COc1cc2c(cc1OC)[C@@H](Nc1ccc(C#N)cc1)[C@H]1COC(=O)[C@@H]1[C@@H]2c1cc(OC)c(O)c(OC)c1` returned an EC50 below 1 nM. For the same compound, in series [4], the selectivity ratio is above 141. In addition, the half-maximal inhibitory concentration (IC50) in the series on H9 [2] stood at 141 nM.
In the series with H9 [3], `COc1cc2c(cc1OC)[C@@H](Nc1ccc(F)cc1)[C@H]1COC(=O)[C@@H]1[C@@H]2c1cc(OC)c(OC)c(OC)c1` gave a concentration for a half-maximal effect (EC50) of 2200 nM. The selectivity ratio in series [4] turned out to be 4.4. In the series with H9 [2], this compound yielded an IC50 of 9700 nM.

The values above are taken from ChEMBL document CHEMBL1129222, “Anti-AIDS agents. 291. Anti-HIV activity of modified podophyllotoxin derivatives” (Bioorg Med Chem Lett, 1997).
